Tests used:
[1] = Compound was evaluated for the apparent first-order binding constant (K) at a concentration of 90 uM to 5 mM
[2] = Compound was evaluated for the apparent second-order binding constant (K) at a concentration of 90 uM to 5 mM
[3] = Compound was tested for inhibition against hammer head ribozyme complex (HH16-F)

- K [1]: 4 M⁻¹
- K [2]: 8 M-2
- Ki [3]: 13.5 µM
Structure (SMILES): NC[C@@H]1O[C@H](O[C@H]2[C@@H](O)[C@H](O[C@@H]3[C@@H](O)[C@H](N)C[C@H](N)[C@H]3O[C@H]3O[C@H](CN)[C@@H](O)[C@H](O)[C@H]3N)O[C@@H]2CO)[C@H](N)[C@@H](O)[C@@H]1O [FRAMYCETIN]

From ChEMBL document CHEMBL1132019, “RNA-aminoglycoside antibiotic interactions: fluorescence detection of binding and conformational change” (Bioorg Med Chem Lett, 1999)
